Source: patent US20240206469A1, “PHOSPHORUS USE EFFICIENCY ENHANCERS AS PLANT GROWTH PROMOTORS” (EUROCHEM ANTWERPEN, priority 2021, published 2024)

Assays:
Rice = Rice box experiment; format: in vivo, rice cultivar Nipponbare; conditions: low phosphate 0.025 mM, 10 μM, 13 days after germination, control 1.1
Procedure: (§1) All Arabidopsis plant experiments were performed using the Arabidopsis thaliana Columbia-0 background. The Arabidopsis pSPX1::GUS line is described in the Plant Journal 2008, 54: 965-975. For rice, the cultivar Nipponbare was used. For maize, the cultivars DKC 2931 and B104 were used for regular pot experiments and sand-based pot experiments, respectively. For soybean, the cultivar Primus was used. […] The medium was solidified due to the addition of 0.6% Gelrite, unless stated otherwise. […]
(§2) Arabidopsis primary root growth experiments were done on MS1/2 on vertical standing plates and roots were measured 11 days after germination. Roots were imaged using a flatbed scanner (EPSON Expression 11000XL) and root length was measured using ImageJ software. Arabidopsis shoot biomass was determined in 11 days after germination and growth on vertical standing plates with modMS. Arabidopsis leaf area was measured 21 days after germination on horizontal plates with modMS medium. Plates were scanned from the top using a flatbed scanner (EPSON Expression 11000XL) and the visible leaf area was measured using ImageJ software. […] Plant height was measured 11 days after germination. […] Plant height was measured 13 days after germination. […]

Maize = assay: Sand-based maize pot experiment; format: in vivo, maize cultivar B104; conditions: low phosphate
Procedure: (§3) All Arabidopsis plant experiments were performed using the Arabidopsis thaliana Columbia-0 background. The Arabidopsis pSPX1::GUS line is described in the Plant Journal 2008, 54: 965-975. For rice, the cultivar Nipponbare was used. For maize, the cultivars DKC 2931 and B104 were used for regular pot experiments and sand-based pot experiments, respectively. For soybean, the cultivar Primus was used. […] The medium was solidified due to the addition of 0.6% Gelrite, unless stated otherwise. In case of vertical plates (root length and root hair measurements), the medium was supplied with 0.5% of sucrose and 1 μM (low phosphate, 1 μM KH2PO4, 9.9 mM KCl), 10 μM (low phosphate 10 μM KH2PO4, 9.9 mM KCl) or 1.25 mM KH2PO4 (high phosphate). Arabidopsis seeds were stratified for 2 days at 4° C. before germination. Seedlings were germinated in climate-controlled growth chambers at 22° C. under continuous light (100 μmol m^−2 s^−1). Husked rice seeds were germinated on wetted Whatman paper for 2 days at 37° C. and then transferred to Sterivent boxes or square Petri dishes with solid medium. Maize and soybean seeds were wetted 24 hours at room temperature prior to sowing in pots.
Regular Arabidopsis, soybean and maize pot experiments used an unfertilized potting soil, which was supplemented at the start of the experiment with 50 ml H2O containing 0.25 g/l NH4NO3 and 0.44 g/l (high phosphate) or no (maize and soybean) or 0.11 g/l KH2PO (Arabidopsis) for low phosphate conditions. For the sand-based maize pot experiment, sand was supplemented with 50 ml H2O containing 0.25 g/l NH4NO3 and 0.38 g/l (high phosphate) or 0.02 g/l (low phosphate) KH2PO4. Potassium was balanced via addition of KCl. Compound concentration was 10 μM, calculated based on the total water content after watering, and was added at the start of the experiment (Arabidopsis) or once a week (maize). Indexed chlorophyll contents were received via a SPAD 502 Plus Chlorophyll Meter. All parameters in the sand experiment, except the rate of leaf 4 (measured the first 4 days after emergence), were measured 19 days after sowing. Measurements in the pot experiments with potting soil were done after 4 weeks of growth, except for leaf 5, which was measured at 26 days. One long-term maize pot experiment was conducted with the DKC 2931 (2.5 months) and B104 (3 months) cultivars on the PHENOVISION phenotyping platform as described in Frontiers in Plant Science 2021, 12: 640914, except that an unfertilized potting soil was used and that plants were fertilized with a low-phosphate Hoagland solution. The 2.5× overconcentrated low-phosphate Hoagland solution contained 0.034 g/l KH2PO and 200 mL of this solution was applied twice a week. […]

Maize B104 = assay: Long-term maize pot experiment, B104 (PHENOVISION); format: in vivo, maize cultivar B104
Procedure: Regular Arabidopsis, soybean and maize pot experiments used an unfertilized potting soil, which was supplemented at the start of the experiment with 50 ml H2O containing 0.25 g/l NH4NO3 and 0.44 g/l (high phosphate) or no (maize and soybean) or 0.11 g/l KH2PO (Arabidopsis) for low phosphate conditions. For the sand-based maize pot experiment, sand was supplemented with 50 ml H2O containing 0.25 g/l NH4NO3 and 0.38 g/l (high phosphate) or 0.02 g/l (low phosphate) KH2PO4. Potassium was balanced via addition of KCl. Compound concentration was 10 μM, calculated based on the total water content after watering, and was added at the start of the experiment (Arabidopsis) or once a week (maize). Indexed chlorophyll contents were received via a SPAD 502 Plus Chlorophyll Meter. All parameters in the sand experiment, except the rate of leaf 4 (measured the first 4 days after emergence), were measured 19 days after sowing. Measurements in the pot experiments with potting soil were done after 4 weeks of growth, except for leaf 5, which was measured at 26 days. One long-term maize pot experiment was conducted with the DKC 2931 (2.5 months) and B104 (3 months) cultivars on the PHENOVISION phenotyping platform as described in Frontiers in Plant Science 2021, 12: 640914, except that an unfertilized potting soil was used and that plants were fertilized with a low-phosphate Hoagland solution. The 2.5× overconcentrated low-phosphate Hoagland solution contained 0.034 g/l KH2PO and 200 mL of this solution was applied twice a week. 1.4 mL of a 10 mM compound solution was added each two weeks to each pot, corresponding to 9.6 mg/g nutrients. 13 plants per condition were used. During the experiment, pictures were taken twice a week for each plants from 6 different angles and the top. Pictures were used to extract the plant height and to extract the projected plant area from each side and calculate an estimated plant volume over time.

Arabidopsis = Arabidopsis horizontal plate leaf area assay; format: in vivo, Arabidopsis thaliana; conditions: 21 days after germination
Procedure: as §1, §2

Arabidopsis root hairs = assay: Root hair number and length quantification; format: in vivo, Arabidopsis thaliana
Procedure: as §3
Roots were imaged using a stereomicroscope or a VHX-6000. Number and length of the root hairs parallel to the medium surface was determined at 4 to 6 mm above the root meristem. Root hair length was measured using the ImageJ software.

CC1CN(CC(=O)c2c(N)n(C)c(=O)n(C)c2=O)c2ccccc2O1 (stereo not shown) [Compound 8, 6-amino-1,3-dimethyl-5-[2-(2-methyl-2,3-dihydro-1,4-benzoxazin-4-yl)acetyl]pyrimidine-2,4-dione]
Plant height (Rice): 3.1 cm | Plant height (Maize; 10 μM once a week, 19 days after sowing, control 21): 28 cm | Indexed chlorophyll content (Maize; 19 days after sowing, SPAD, control 28): 32 | Crown root number (Maize; 19 days after sowing, control 2): 7 | Growth rate of leaf 4 (Maize; first 4 days after emergence, control 2.04): 2.46 cm/day | Plant height (Maize B104; B104, day 15, control 230): 220 mm | Estimated volume (Maize B104; B104, day 15, control 311): 292 cm^3 | Plant height (Maize B104; B104, day 19, control 246): 239 mm | Estimated volume (Maize B104; B104, day 19, control 465): 441 cm^3 | Plant height (Maize B104; B104, day 22, control 291): 288 mm | Estimated volume (Maize B104; B104, day 22, control 548): 565 cm^3 | Plant height (Maize B104; B104, day 26, control 351): 368 mm | Estimated volume (Maize B104; B104, day 26, control 623): 689 cm^3 | Plant height (Maize B104; B104, day 27, control 416): 364 mm | Estimated volume (Maize B104; B104, day 27, control 637): 552 cm^3 | Plant height (Maize B104; B104, day 29, control 412): 411 mm | Estimated volume (Maize B104; B104, day 29, control 788): 877 cm^3 | Plant height (Maize B104; B104, day 33, control 424): 428 mm | Estimated volume (Maize B104; B104, day 33, control 1146): 1368 cm^3 | Plant height (Maize B104; B104, day 36, control 472): 485 mm | Estimated volume (Maize B104; B104, day 36, control 1405): 1735 cm^3 | Plant height (Maize B104; B104, day 40, control 507): 547 mm | Estimated volume (Maize B104; B104, day 40, control 1673): 2117 cm^3 | Plant height (Maize B104; B104, day 43, control 551): 587 mm | Estimated volume (Maize B104; B104, day 43, control 1795): 2363 cm^3 | Plant height (Maize B104; B104, day 47, control 609): 657 mm | Estimated volume (Maize B104; B104, day 47, control 2268): 2844 cm^3 | Plant height (Maize B104; B104, day 50, control 633): 692 mm | Estimated volume (Maize B104; B104, day 50, control 2874): 3518 cm^3 | Plant height (Maize B104; B104, day 54, control 544): 564 mm | Estimated volume (Maize B104; B104, day 54, control 3143): 3857 cm^3 | Plant height (Maize B104; B104, day 57, control 572): 569 mm | Estimated volume (Maize B104; B104, day 57, control 3365): 4216 cm^3 | Plant height (Maize B104; B104, day 61, control 572): 609 mm | Estimated volume (Maize B104; B104, day 61, control 3936): 5052 cm^3 | Plant height (Maize B104; B104, day 63, control 514): 529 mm | Estimated volume (Maize B104; B104, day 63, control 3808): 4933 cm^3 | Plant height (Maize B104; B104, day 68, control 566): 593 mm | Estimated volume (Maize B104; B104, day 68, control 4585): 5837 cm^3 | Plant height (Maize B104; B104, day 71, control 611): 629 mm | Estimated volume (Maize B104; B104, day 71, control 4957): 5962 cm^3 | Plant height (Maize B104; B104, day 75, control 569): 627 mm | Estimated volume (Maize B104; B104, day 75, control 5016): 6099 cm^3 | Plant height (Maize B104; B104, day 78, control 590): 662 mm | Estimated volume (Maize B104; B104, day 78, control 5551): 6540 cm^3 | Plant height (Maize B104; B104, day 82, control 626): 685 mm | Estimated volume (Maize B104; B104, day 82, control 5788): 6751 cm^3 | Plant height (Maize B104; B104, day 85, control 677): 707 mm | Estimated volume (Maize B104; B104, day 85, control 5957): 6623 cm^3 | Plant height (Maize B104; B104, day 89, control 697): 733 mm | Estimated volume (Maize B104; B104, day 89, control 5717): 6434 cm^3 | Average number of ears (Maize B104; Maize pot long term B104, 3 months, low phosphate, control 0.3): 0.7 | Shoot weight (Maize B104; Maize pot long term B104, low phosphate, control 28): 32 g | Leaf 6 (Maize B104; Maize pot long term B104, low phosphate, control 48): 50 cm | Leaf area (Arabidopsis; low phosphate, 10 μM, control 78): 106 mm^2 | Leaf area in sub-optimal phosphate conditions (Arabidopsis; sub-optimal phosphate, control 104): 143 mm^2 | activity at 0.6 µM (Arabidopsis root hairs; Arabidopsis thaliana, 0.6 μM, read-out: Total root hair length per root (in % compared to the control)): 104% | activity at 1.25 µM (Arabidopsis root hairs; Arabidopsis thaliana, 1.25 μM, read-out: Total root hair length per root (in % compared to the control)): 333% | activity at 2.5 µM (Arabidopsis root hairs; Arabidopsis thaliana, 2.5 μM, read-out: Total root hair length per root (in % compared to the control)): 347% | activity at 5 µM (Arabidopsis root hairs; Arabidopsis thaliana, 5 μM, read-out: Total root hair length per root (in % compared to the control)): 485% | activity at 10 µM (Arabidopsis root hairs; Arabidopsis thaliana, 10 μM, read-out: Total root hair length per root (in % compared to the control)): 586% | Average root hair length per root in high phosphate conditions (Arabidopsis root hairs; Arabidopsis vertical plate, high phosphate, control 0.11): 0.32 mm | Root hair number in high phosphate conditions (one plane in 2 mm region) (Arabidopsis root hairs; Arabidopsis vertical plate, high phosphate, control 3): 9 | Total root hair length per root in high phosphate conditions (Arabidopsis root hairs; Arabidopsis vertical plate, high phosphate, control 57): 183 cm
